Source: US20120035187A1 (priority 2009, published 2012)

Columns and labels:
brain ischemia rat = assay: Brain ischemia (cerebral infarction model) rat: behavioral score; assay type: in vivo; design: Behavioral score: scale not given here; conditions: for behavioral score (in words): Experiment 13, cerebral-infarction-model rat, administered through caudal vein
Method: Male SD rats, seven- to eight-weeks of age and 280 to 330 g body weight, commercialized by Charles River Laboratories Japan Inc., Kanagawa, Japan, were allocated randomly into seven groups, consisting of five to seven rats in each group. Among the seven groups, five groups were subjected to the following surgery as test groups: Rats in the test groups were subcutaneously administered with 0.3 mg/kg body weight of atropine, commercialized by Fuso Pharmaceutical industries, Osaka, Japan. Successively, each rat was anesthetized by administrating 600 mg/kg body weight of urethane, commercialized by Sigma-Aldrich Co., MO, USA, and 60 mg/kg-weight of […], commercialized by Sigma-Aldrich Co., MO, USA, into the peritoneal cavity, and fixed to a fixator under voluntary breathing conditions. The right carotid artery bifurcation was exposed by median incision of the neck without damaging vagus nerve. The common carotid artery and external carotid artery around the right carotid artery bifurcation were exfoliated from surrounding connective tissue and wired respectively using “NESCOSUTURE”, a 6-0 nylon string commercialized by Alfresa Pharma Corporation, Osaka, Japan. Then, the internal carotid artery was tied with the 6-0 nylon string for fixation after insertion of an obturator. Successively, the common carotid artery was incised and a silicon-coated obturator, prepared by a 4-0 nylon string, commercialized by Doccol Corp., CA, USA, was inserted from the common carotid artery into the internal carotid artery at a distance of about 16 mm, and clipped to the common carotid artery (see, for example, Koizumi et al., Cerebral stroke, Vol. 8, No. 1, pp. 1-8 (1986)). By the method, the silicon-coated tip of obturator was inserted through the right carotid artery bifurcation to frontal cerebral artery at a distance of about 2 mm and obstructs the inlet of the medial cerebral artery. After two hours occlusion of the medial cerebral artery while keeping the rat on an isothermal pad controlled at a temperature of 37° C., blood was allowed to reperfuse by withdrawing the obturator. Then, the internal carotid artery was tied near the carotid artery bifurcation for preventing the bleeding from the incised part of the common carotid artery. In the model, the blood was reperfused through the left carotid artery, vertebral artery, basilar artery, frontal and backward communication artery because the right carotid artery was clipped.
NK-4, NK-19, NK-53, NK-100, and NK-557, used in the test, were respectively dissolved in DMSO (product No. “D8418”, commercialized by Sigma-Aldrich Co., MO, USA) to give a concentration of 5 mg/ml and filtrated using “MILLEX-LG SLLG025SS”, a DMSO-resistant membrane filter commercialized by Millipore, MA, USA. Stock […], and then 4 ml/kg body weight of any of the resulting diluted solutions was administered ([…]) to five test groups (test groups 1 to 5) consisting of five or seven rats, through their caudal veins at both after one hour from the occlusion of middle cerebral artery and immediately after initiating reperfusion. After 24 hours from the reperfusion of blood, behavioral and histological evaluations of rats were carried out according to the following procedures: As a control group 1, five rats in one group out of the remaining two groups were subjected to the same surgery as the rats in the test groups 1 to 5, and administered with 4 ml/kg body weight of PBS free of any of the compounds through their caudal veins at both after one hour of the medial cerebral artery occlusion and immediately after the start of reperfusion. As the control group 2, six rats in the remaining one group were subjected to a sham surgery, in which common, external, and internal carotid arteries were clipped and then reperfused their blood without inserting the obturator to each medial cerebral artery. […]

[1] = Hydroxyl radical-scavenging activity, ESR (Fenton reaction)
Method: Stock solutions, prepared by dissolving NK-4, NK-19, NK-53, NK-100, and NK-557 in DMSO, were respectively diluted with refined water to give concentrations of 3-folds higher than those in Table 14 and used as test sample solutions. As a positive control, a neuroprotectant, “edaravone”, commercialized as “RADICUT®” containing 3-methyl-1-phenyl-2-pyrazoline-5-one as an effective ingredient by Mitsubishi Tanabe Pharma Corporation, Osaka, Japan, was diluted with refined water to give a concentration of 3-folds higher than that in Table 14 for use. To 50 μl of refined water, 50 μl of 89 mM DMPO ([…]) commercialized by Dojindo Laboratories, Kumamoto, Japan, 50 μl of the test sample solution, and 50 μl of an aqueous solution containing 1 mM hydrogen peroxide, 1 mM FeSO4, and 1 mM DTPA, commercialized by Wako Pure Chemical Industries, Osaka, Japan, were added, mixed for 10 seconds using a vortex mixer and allowed to react in an incubator controlled at 37° for 40 seconds. After 30 seconds from completion of the reaction, the resulting reaction mixture was subjected to ESR measurement. A control solution was prepared by the same method as above except for using 50 μl of a diluted edaravone solution as a substitute for the test sample solution, and subjected to ESR measurement.
The reaction mixture for measuring hydroxyl or peroxyl radicals was poured into a flat quartz cell for ESR, set to “FREE RADICAL MONITOR JES-FR30”, an ESR apparatus commercialized by JOEL Ltd., Tokyo, Japan, and ESR was measured according to manual manner. The residual ratio of peroxyl radical (%) was determined as a relative value by defining the ESR value, obtained by using 0.1 M phosphate buffer as a substitute of the test sample solution, as 100. The results are in Tables 14 and 15. […] Therefore, the IC50 of edaravone was determined by another test using its higher concentration, and the result is also shown in Table 14. The conditions of the ESR measurement were set as follows: […]

[2] = brain ischemia rats (embolus, 2 h occlusion, reperfusion), 100 p g/kg body weight via caudal vein 1 h after occlusion and at reperfusion, 24 hours after reperfusion, maximum score 6
[3] = concentration of compound 2.5 μg/ml
[4] = concentration of compound 3.13 μg/ml
[5] = concentration of compound 6.25 μg/ml
[6] = concentration of compound 12.5 μg/ml
[7] = embolus rat, dose 100 μg per kg body weight, caudal vein

| Compound | Behavioral score (brain ischemia rat; [2]) | IC50 (μg/ml) of hydroxyl radical-scavenging activity [1] | Residual ratio of hydroxyl radical (%) [1, 3] | Residual ratio of hydroxyl radical (%) [1, 4] | Residual ratio of hydroxyl radical (%) [1, 5] | Residual ratio of hydroxyl radical (%) [1, 6] | behavioral score (in words) (brain ischemia rat) | Behavioral score (brain ischemia rat; embolus rat, dose 25 μg per kg body weight, caudal vein) | Behavioral score (brain ischemia rat; embolus rat, dose 50 μg per kg body weight, caudal vein) | Behavioral score (brain ischemia rat; [7]) | Behavioral score (brain ischemia rat; embolus rat, dose 200 μg per kg body weight, caudal vein) | Behavioral score (brain ischemia rat; embolus rat, dose 300 μg per kg body weight, caudal vein) | Behavioral score (brain ischemia rat; embolus rat, dose 1 μg per kg body weight, caudal vein) | Behavioral score (brain ischemia rat; embolus rat, dose 10 μg per kg body weight, caudal vein) |
| --- | --- | --- | --- | --- | --- | --- | --- | --- | --- | --- | --- | --- | --- | --- |
| CC[n+]1ccccc1/C=C/c1ccc(N(C)C)cc1 [NK-557] | 2.9 ± 0.3 | 6.2 µg/mL | 15 ± 6 % | 71 ± 1 % | 50 ± 1 % | 30 ± 1 % | – | – | – | – | – | – | – | – |
| CCN1/C(=C/C=C(/C=C/c2sc3ccccc3[n+]2CC)c2sc3ccccc3[n+]2CC)Sc2ccccc21.[I-].[I-] [NK-100] | 2.4 ± 0.2 | 6.6 µg/mL | 8 ± 0 % | 68 ± 1 % | 51 ± 1 % | 32 ± 1 % | – | – | – | – | – | – | – | – |
| CCN1C=CC(=CC=C(C=Cc2cc[n+](CC)c3ccccc23)c2cc[n+](CC)c3ccccc23)c2ccccc21.[I-].[I-] [NK-4] | 2.9 ± 0.2 | 6.7 µg/mL | 15 ± 1 % | 67 ± 1 % | 49 ± 2 % | 26 ± 1 % | significantly improved | 4.5 ± 0.6 | 3.3 ± 0.4 | 2.6 ± 0.2 | 3.7 ± 0.4 | 4.2 ± 0.5 | – | – |
| CCCCN1C=C/C(=C/C=C(/C=C/c2cc[n+](CCCC)c3ccccc23)c2cc[n+](CCCC)c3ccccc23)c2ccccc21 [NK-26] | – | – | – | – | – | – | significantly improved | – | – | 4.3 ± 0.4 | – | – | 4.4 ± 0.4 | 3.44 ± 0.6 |
